In the experiment the target is T1, AChE from electric eel (Electrophorus electricus, UniProt O42275).
T1 construct: purchased Sigma (St. Louis, USA)
Description: Quantitative colorimetric microplate assay based on Ellman's method for AChE inhibitory activity. The format is biochemical. The conditions noted are these: for IC50: read-out: IC50, inhibition of AchE (converted). The method, then: The tested concentrations of the samples ranged from 1.56 to 200 μg/mL. Based on the resulting curves, the IC50 values for AChE inhibition were calculated using the respective curves’ equations (Table 1).
Acetylthiocholine iodide (ATCI) and chelidonine were obtained from Fluka (Buchs, Switzerland). Fast Blue B salt (FBS) and silica gel 60 were from Merck (Darmstadt, Germany). The solvents MeOH, EtOAc, CH2Cl2, and CHCl3 were purchased from VWR (Vienna, Austria). Two different buffer systems were used (buffer A: 50 mM Tris-HCl, pH 7.9 containing 0.1% BSA; buffer B: 50 mM Tris-HCl, pH 7.9 containing 0.1 M NaCl and 0.02 M MgCl2·6H2O).
A quantitative colorimetric assay based on Ellman’s method was used to measure the AChE inhibitory activities of the substances. Briefly, in a 96-well plate, 25 μL of 15 mM ATCI, 125 μL of 3 mM DTNB in buffer B, 50 μL of buffer A, and 25 μL of the extract or the isolated substances (from 15.6 μg/mL to 2.0 mg/mL in 10% DMSO) were thoroughly mixed and the absorbance was read at 405 nm five times every 15 s. Finally, 25 μL of AChE (0.22 U/mL in buffer A) were added and the plate was incubated at 25°C for 10 minutes. Then the absorbance was measured again eight times every 15 s. A 10% DMSO solution was used as the negative control. To compensate for any increase in absorbance due to the color of the extracts or spontaneous hydrolysis of the substrate, the absorbance before the addition of the enzyme was subtracted from the absorbance after adding the enzyme. The assay was repeated three times for every concentration.

Setting [1] is: n=3, 25°C, 10 min incubation, tested 1.56 to 200 μg/mL.
The mark [2] stands for this setting: n=3, same values given in molar unit.

Like-named read-outs stand apart in the source and are kept apart here.

T1 sequence (O42275 24-633): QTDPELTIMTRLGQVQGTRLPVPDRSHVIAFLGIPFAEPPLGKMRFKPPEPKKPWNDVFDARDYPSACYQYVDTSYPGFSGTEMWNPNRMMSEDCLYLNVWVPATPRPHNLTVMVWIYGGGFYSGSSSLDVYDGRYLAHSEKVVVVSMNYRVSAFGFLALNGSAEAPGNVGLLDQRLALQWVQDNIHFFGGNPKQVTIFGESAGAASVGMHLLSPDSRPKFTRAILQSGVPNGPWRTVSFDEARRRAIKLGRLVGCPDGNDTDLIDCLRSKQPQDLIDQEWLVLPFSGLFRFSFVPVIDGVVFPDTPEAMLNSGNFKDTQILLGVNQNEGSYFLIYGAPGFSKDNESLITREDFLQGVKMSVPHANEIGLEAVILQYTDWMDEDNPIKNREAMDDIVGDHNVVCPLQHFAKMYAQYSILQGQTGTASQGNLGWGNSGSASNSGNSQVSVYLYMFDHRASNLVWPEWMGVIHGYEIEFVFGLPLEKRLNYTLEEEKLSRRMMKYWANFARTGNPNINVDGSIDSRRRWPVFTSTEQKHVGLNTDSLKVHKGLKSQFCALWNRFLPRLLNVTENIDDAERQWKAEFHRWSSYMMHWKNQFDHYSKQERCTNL

Regarding `C=C[C@]1(C)CC[C@H]([C@@H](C)C(=O)[C@H](O)C=C(C)C)C12C(=O)Oc1cc(OC)ccc1C2=O` (stereo partly drawn) [Compound 2, (2′S,5′R)-2′-ethenyl-5′-[(2R,4R)-4-hydroxy-6-methyl-3-oxohept-5-en-2-yl]-7-methoxy-2′-methyl-4H-spiro[chromene-3,1′-cyclopentane]-2,4-dione], the “AChE inhibitory activity (in words)” value was “only low activities”. Moreover, the IC50 (usually the concentration at which inhibition is half-maximal) under setting [1] was 236 µM. Besides, the concentration for half-maximal inhibition (IC50) under setting [2] is 237 µM.

In the case of `CC(C)=CCC/C(C)=C/CC/C(C)=C/CCC(=O)c1ccc(O)cc1O` [Compound 3, (4E,8E)-1-(2,4-dihydroxyphenyl)-5,9,13-trimethyltetradeca-4,8,12-trien-1-one], the “times more active than compounds 1, 2 and 4 (AChE inhibition)” value (comparison of IC50 values) is listed as “about 10 times”. Further, the 50% inhibitory concentration (IC50) was 23.4 µM under setting [1] and 23.5 µM under setting [2].

Consider `CC(C)=CCC/C(C)=C/CC/C(C)=C/Cc1c(O)c2ccc(O)cc2oc1=O` [Compound 4, 4,7-dihydroxy-3-[(2E,6E)-3,7,11-trimethyldodeca-2,6,10-trien-1-yl]-2H-chromen-2-one], for which the “AChE inhibitory activity (in words)” value was “only low activities”. Also, under setting [1], the IC50 is 201 µM. Further, under setting [2], the 50% inhibitory concentration (IC50) is 201 µM.

`C=C[C@]1(C)CC[C@@H](C(C)C(O)C(=O)C=C(C)C)C12C(=O)Oc1cc(OC)ccc1C2=O` (stereo partly drawn) [Compound 1, (2′S,5′S)-2′-ethenyl-5′-(3hydroxy-6-methyl-4-oxohept-5-en-2-yl)-7-methoxy-2′-methyl-4H-spiro[chromene-3,1′-cyclopentane]-2,4-dione]: the “AChE inhibitory activity (in words)” value was “only low activities”. Moreover, under setting [1], the IC50 was 181 µM. Further, the IC50 under setting [2] was 181 µM.

The values are drawn from article PMC3791940, “Compounds from Gum Ammoniacum with Acetylcholinesterase Inhibitory Activity” (Scientia Pharmaceutica, 2013).
